Assay results taken from paper PMC5713674, “Meditope–Fab interaction: threading the hole” (Acta Crystallographica. Section F, Structural Biology …, 2017).
Read-outs that look alike come from different tables or passages of the source.

Assays:
cetuximab [1] = experiment: Surface plasmon resonance (Biacore T100) binding kinetics of meditope variants to immobilised cetuximab IgG; conditions: SPR, 25°C, at pH 5.5
cetuximab [2] = experiment: as above; conditions: 25°C; for k a / k d: pH 7.4, HBS-EP+
Experimental: All surface plasmon resonance (SPR) experiments were performed on a GE Biacore T100 instrument (GE Healthcare) at 25°C as described previously (Bzymek, Avery et al., 2016[▸]; Bzymek, Ma et al., 2016[▸]). Briefly, cetuximab IgG ligand was amine-coupled to CM5 chips using acetate buffer pH 5.5 at a density of 5000 RU. Analytes were prepared in GE buffer HBS-EP+ [10 mM HEPES pH 7.4, 150 mM NaCl, 3 mM EDTA, 0.05%(v/v) surfactant P20]. Kinetics experiments were carried out at a flow rate of 30 µl min^−1 using HBS-EP+ as both the running and regeneration buffer. Experimental data were processed using Biacore T100 Evaluation software v.2.0.1. Purified peptides were dissolved in water and extensively dialyzed to remove any residual TFA, and their concentration was determined as described previously (Bzymek, Ma et al., 2016[▸]).

cetuximab [3] = system: cetuximab; design: method as in Bzymek, Ma et al. (2016); conditions: SPR, 25°C, pH 7.4; ref Bzymek, Ma et al. (2016); cited from earlier work

Molecule	k a (cetuximab [2]; SPR) [M^−1 s^−1 × 10^4]	k d (cetuximab [2]; SPR) [s⁻¹]	other results
CC(C)C[C@@H]1NC(=O)[C@H](CCCNC(=N)N)NC(=O)[C@H](CCCNC(=N)NCCC(=O)O)NC(=O)[C@H]([C@@H](C)O)NC(=O)[C@H](CO)NC(=O)[C@H](CC(C)C)NC(=O)[C@H](CC(=O)O)NC(=O)[C@H](Cc2ccccc2)NC(=O)[C@H](CCC(N)=O)NC(=O)CCCCCCNC(=O)[C@H](CCCCN)NC1=O [(AHA)QFDLSTR(EtCOOH)RLK, aminoheptanoic acid-linked N-carboxyethylarginine meditope variant]	–	–	Kd (cetuximab [1]): 32 µM; k a (cetuximab [1]): 0.06 M^−1 s^−1 × 10^4; k d (cetuximab [1]): 0.020 s⁻¹
CC(C)C[C@@H]1NC(=O)[C@H](CCCNC(=N)N)NC(=O)[C@H](CCCNC(=N)NCCCN)NC(=O)[C@H]([C@@H](C)O)NC(=O)[C@H](CO)NC(=O)[C@H](CC(C)C)NC(=O)[C@H](CC(=O)O)NC(=O)[C@H](Cc2ccccc2)NC(=O)[C@H](CCC(N)=O)NC(=O)CCCCCCNC(=O)[C@H](CCCCN)NC1=O [(AHA)QFDLSTR(PrNH2)RLK, aminoheptanoic acid-linked N-(3-aminopropyl)-L-arginine meditope variant]	1.2	0.110	–
CC(C)C[C@@H]1NC(=O)[C@H](CCCNC(=N)N)NC(=O)[C@H](CCCNC(=N)NCCCO)NC(=O)[C@H]([C@@H](C)O)NC(=O)[C@H](CO)NC(=O)[C@H](CC(C)C)NC(=O)[C@H](CC(=O)O)NC(=O)[C@H](Cc2ccccc2)NC(=O)[C@H](CCC(N)=O)NC(=O)CCCCCCNC(=O)[C@H](CCCCN)NC1=O [(AHA)QFDLSTR(PrOH)RLK, aminoheptanoic acid-linked N-(3-hydroxypropyl)-L-arginine meditope variant]	1.2	0.027	increase in the half-life of the complex over the nonmodified AHA-cyclized meditope (cetuximab [2]; t = ln(2)/k d, HBS-EP+ pH 7.4): 1.7 fold
CQFDLSTRRLKC	–	–	k a (cetuximab [3]): 8.8 M^−1 s^−1 × 10^4

More lines, main results first:

k a (cetuximab [2]; SPR) [M^−1 s^−1 × 10^4]	k d (cetuximab [2]; SPR) [s⁻¹]	Molecule	other results
2.2	0.060	CCCCNC(=N)NCCC[C@@H]1NC(=O)[C@H]([C@@H](C)O)NC(=O)[C@H](CO)NC(=O)[C@H](CC(C)C)NC(=O)[C@H](CC(=O)O)NC(=O)[C@H](Cc2ccccc2)NC(=O)[C@H](CCC(N)=O)NC(=O)CCCCCCNC(=O)[C@H](CCCCN)NC(=O)[C@H](CC(C)C)NC(=O)[C@H](CCCNC(=N)N)NC1=O [(AHA)QFDLSTR(nBu)RLK, aminoheptanoic acid-linked n-butylarginine meditope variant]	change of half-life of the complex versus nonmodified AHA-cyclized meditope (in words) (cetuximab [2]; t = ln(2)/k d, HBS-EP+ pH 7.4): slightly reduced
0.93	0.079	CCCCCCCCNC(=N)NCCC[C@@H]1NC(=O)[C@H]([C@@H](C)O)NC(=O)[C@H](CO)NC(=O)[C@H](CC(C)C)NC(=O)[C@H](CC(=O)O)NC(=O)[C@H](Cc2ccccc2)NC(=O)[C@H](CCC(N)=O)NC(=O)CCCCCCNC(=O)[C@H](CCCCN)NC(=O)[C@H](CC(C)C)NC(=O)[C@H](CCCNC(=N)N)NC1=O [(AHA)QFDLSTR(nOc)RLK, aminoheptanoic acid-linked n-octylarginine meditope variant]	change of half-life of the complex versus nonmodified AHA-cyclized meditope (in words) (cetuximab [2]; t = ln(2)/k d, HBS-EP+ pH 7.4): slightly reduced
2.5	0.046	CC(C)C[C@@H]1NC(=O)[C@H](CCCNC(=N)N)NC(=O)[C@H](CCCNC(=N)N)NC(=O)[C@H]([C@@H](C)O)NC(=O)[C@H](CO)NC(=O)[C@H](CC(C)C)NC(=O)[C@H](CC(=O)O)NC(=O)[C@H](Cc2ccccc2)NC(=O)[C@H](CCC(N)=O)NC(=O)CCCCCCNC(=O)[C@H](CCCCN)NC1=O [reference compound]	k a (on-rate) (cetuximab [2]; SPR, pH 7.4): 25000 M⁻¹ s⁻¹; k a (cetuximab [1]): 2.0 M^−1 s^−1 × 10^4; k d (cetuximab [1]): 0.075 s⁻¹
